Among the test systems are DLD-1; DMS-114; DMS-273; LXFL 529; M19-MEL; SNB-78; HOP-18; XF498; RXF 631.
Common to all, as to assay: NCI anticancer screen, dose series, 48 h

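Protocol summary: plate cells (96-well), add compound at 5 concentrations, incubate 48 h, interpolate endpoints linearly. GI50 marks 50% less growth.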 Active and inactive are the calls of the source. No stated cut-off is given here; in the data, active = GI50 up to about 1.1 µM and inactive = higher. A value given as a limit tells only on which side of the number the result lay.

With `CN(C)c1ccc(-c2cc(O)c3ccccc3n2)cc1`, the GI50 with DLD-1, in the test with DMS-114, with DMS-273, in the test on LXFL 529, in the test with M19-MEL and in the test with SNB-78 was > 100 µM (inactive) in each case.

Consider `OCC1CCC(n2cnc3c(O)ncnc32)O1` (stereo not given), for which the GI50 with DLD-1, in the test on DMS-114, in the test with DMS-273, in the test on HOP-18 and in the test on M19-MEL was > 100 µM (inactive) throughout.

As for `O=CN/C=C\c1cc(O)ccc1O`, the GI50 is 14.6 µM (inactive) in the test with DLD-1; 14.5 µM (inactive) in the test with DMS-114; 7.11 µM (inactive) in the test on DMS-273; 16.8 µM (inactive) with HOP-18; 10.8 µM (inactive) with LXFL 529; 11.8 µM (inactive) in the test with M19-MEL. In addition, the GI50 in the test on SNB-78 is 70 µM (inactive); in the test on XF498 it was 15.4 µM (inactive).

On to `N#CC(C#N)=Cc1ccc(CP(=O)(O)O)cc1`, for which the GI50 with DLD-1, in the test on DMS-114, in the test on DMS-273, with HOP-18, in the test on LXFL 529 and with M19-MEL was > 100 µM (inactive) throughout. Further, the GI50 with RXF 631, in the test on SNB-78 and in the test on XF498 was > 100 µM (inactive) in each case.

With `CC(=O)C(CN(CC(C)C)CC(C)C)C(c1ccccc1)c1c(O)c2ccccc2oc1=O` (stereo not given), the GI50 with DLD-1, in the test with DMS-114, in the test on LXFL 529, in the test with M19-MEL and in the test on RXF 631 was > 100 µM (inactive) each time.

With `COc1ccc(C2C3=C(COC3=O)Oc3cc4c(cc32)OCO4)cc1` (stereo not given), the GI50 is 15.4 µM (inactive) in the test on DLD-1; 4.3 µM (inactive) with DMS-114; 5.26 µM (inactive) in the test with DMS-273; 18.6 µM (inactive) in the test with HOP-18; 15.5 µM (inactive) in the test on M19-MEL; 16.6 µM (inactive) in the test with SNB-78. The GI50 with XF498 is 7.18 µM (inactive).

On to `CNC(=S)N/N=C1\CC(c2ccccc2)Oc2ccccc21` (stereo not given), for which the GI50 in the test on DLD-1 is > 100 µM (inactive); with DMS-273, > 100 µM (inactive); in the test with LXFL 529, > 100 µM (inactive); with M19-MEL, 91.8 µM (inactive); with SNB-78, > 100 µM (inactive).

With `O=C1[C@H]2C(c3ccccc3)=NN(C(=O)c3ccccc3)[C@H]2C(=O)N1c1ccccc1`, the GI50 in the test with DLD-1 is > 100 µM (inactive); with DMS-114 it was > 100 µM (inactive); in the test with DMS-273, > 100 µM (inactive); in the test on HOP-18 it was 68.4 µM (inactive).

`BrC(Br)([P+](c1ccccc1)(c1ccccc1)c1ccccc1)[P+](c1ccccc1)(c1ccccc1)c1ccccc1`: the GI50 in the test on DLD-1 is 15.9 µM (inactive); in the test on DMS-114, 13.4 µM (inactive); in the test on DMS-273, 14.6 µM (inactive); with HOP-18 it was > 100 µM (inactive); in the test on LXFL 529, 15.2 µM (inactive); in the test with M19-MEL it was 13.3 µM (inactive). The GI50 in the test on SNB-78 is 19.7 µM (inactive).

Regarding `Cc1cccc(NC2=NC(=O)C(CC(=O)Nc3ccccc3Cl)S2)c1` (stereo not given), the GI50 with DLD-1, in the test on DMS-114, in the test with DMS-273, in the test on LXFL 529, with M19-MEL and with RXF 631 was > 100 µM (inactive) each time. The GI50 in the test on SNB-78 was > 100 µM (inactive); with XF498 it was 95.1 µM (inactive).

Take `CC1=C(C(=O)NNS(=O)(=O)c2ccc(C)cc2)CC(C(=O)NNS(=O)(=O)c2ccc(C)cc2)=C(C)N1`: the GI50 is > 100 µM (inactive) with DLD-1; > 100 µM (inactive) with DMS-114; 27.1 µM (inactive) with HOP-18; 52.1 µM (inactive) in the test with LXFL 529; 98.9 µM (inactive) with M19-MEL; > 100 µM (inactive) with RXF 631. In addition, the GI50 in the test on SNB-78 and with XF498 was > 100 µM (inactive) each time.

Turning to `Cc1[nH]c(=O)nc(N/N=C/c2ccc(Cl)cc2)c1C(=O)Nc1ccc(Cl)cc1`, the GI50 with DLD-1 was > 33.7 µM (inactive); in the test with DMS-114, 18.2 µM (inactive); with DMS-273, 12.6 µM (inactive); in the test on HOP-18, 1.22 µM (inactive); in the test on LXFL 529, 23 µM (inactive); in the test with M19-MEL it was 16.1 µM (inactive). The GI50 is > 100 µM (inactive) in the test with SNB-78 and 4.68 µM (inactive) in the test with XF498.

For the molecule `C=CCC1(CN(C)C)CC/C(=C\c2cc(OC)c(OC)c(OC)c2)C1=O` (stereo not given), the GI50 in the test on DLD-1 was 20 µM (inactive); in the test on DMS-114 it was 18.6 µM (inactive); with DMS-273, > 10 µM (inactive); in the test with HOP-18 it was 22.3 µM (inactive); in the test on LXFL 529, 17.9 µM (inactive); in the test on M19-MEL it was 37.1 µM (inactive). In addition, the values for the GI50 with RXF 631 and in the test with SNB-78 were 25.6 µM (inactive) and 28.1 µM (inactive), respectively.

In the case of `Cc1ccccc1C1=[N+]([O-])c2ccccc2C1=O`, the GI50 in the test with DLD-1 is 17.3 µM (inactive); with DMS-114, 13.4 µM (inactive); in the test with HOP-18 it was 19.6 µM (inactive); in the test on LXFL 529 it was 14.9 µM (inactive); with M19-MEL it was 15.2 µM (inactive); with RXF 631, 23.6 µM (inactive). In addition, the GI50 in the test on XF498 was 17.4 µM (inactive).

Consider `COc1ccc(N2C(=O)C3c4[nH]c5ccccc5c4C4CC(C)CC(C)C4C3C2=O)cc1` (stereo not given), for which the GI50 with DLD-1, in the test with DMS-114, in the test on DMS-273, with HOP-18, in the test with LXFL 529 and in the test on M19-MEL was > 100 µM (inactive) each time. In addition, the GI50 with SNB-78 and in the test on XF498 was > 100 µM (inactive) in each case.

Regarding `N#CC12Cc3cc4c(cc3-c3cccc(c31)CCN2C(=O)c1ccccc1)OCO4` (stereo not given), the GI50 was > 100 µM (inactive) in the test on DLD-1; 83 µM (inactive) with DMS-114; > 100 µM (inactive) in the test on DMS-273; > 100 µM (inactive) with HOP-18; > 100 µM (inactive) in the test on LXFL 529; > 100 µM (inactive) in the test on M19-MEL. The results for the GI50 in the test on SNB-78 and with XF498 were 51.6 µM (inactive) and 24.2 µM (inactive), respectively.

On to `CN(C)CCN(C)C(=O)C1CCCN1C(=O)OCc1ccccc1` (stereo not given), for which the GI50 in the test on DLD-1 is 71.3 µM (inactive); in the test on DMS-114 it was > 100 µM (inactive); with DMS-273 it was > 100 µM (inactive); in the test with LXFL 529, > 100 µM (inactive); with M19-MEL, > 100 µM (inactive); in the test with SNB-78, > 100 µM (inactive). Moreover, the GI50 in the test on XF498 is > 100 µM (inactive).

For `CC(=O)OCC1OC(OC(C)=O)C(NC#N)C(OC(C)=O)C1OC(C)=O` (stereo not given), the GI50 is > 100 µM (inactive) with DLD-1; > 100 µM (inactive) in the test on DMS-114; > 100 µM (inactive) in the test with DMS-273; > 100 µM (inactive) in the test on HOP-18; 67.9 µM (inactive) with LXFL 529; > 100 µM (inactive) with M19-MEL.

Regarding `O=S1(=O)C[C@H](O)[C@H](O)CS1`, the GI50 in the test on DLD-1, in the test with DMS-114, in the test with DMS-273, in the test on HOP-18, with LXFL 529 and in the test with M19-MEL was > 100 µM (inactive) each time. For the same molecule, the GI50 with SNB-78 and in the test on XF498 was > 100 µM (inactive) throughout.

Consider `O=C(c1ccccc1)c1c(C(=O)c2ccccc2)c(-c2ccccc2)c2c(-c3ccccc3)sc(-c3ccccc3)c2c1-c1ccccc1`, for which the GI50 with DLD-1, in the test on DMS-114, in the test with DMS-273, in the test with LXFL 529, with M19-MEL and in the test with RXF 631 was > 100 µM (inactive) throughout. Also, the GI50 in the test with SNB-78 and in the test on XF498 was > 100 µM (inactive) in each case.

Consider `Cc1oc2c(C)c(O)c3c(c2c1C1(C)OCCO1)C(=O)C=C(Cl)C3=O`, for which the GI50 is > 100 µM (inactive) in the test on DMS-273; > 100 µM (inactive) in the test on LXFL 529; > 100 µM (inactive) in the test on M19-MEL; > 100 µM (inactive) in the test on RXF 631; > 100 µM (inactive) in the test with SNB-78; 33.3 µM (inactive) in the test with XF498.

For `CC(C)C1=Cc2ccc3c(c2C(=O)C1=O)CCCC3(C)C` [MILTIRONE], the GI50 in the test with DLD-1 was 2.15 µM (inactive); in the test with DMS-273, 4.34 µM (inactive); with HOP-18, 2.58 µM (inactive); with LXFL 529, 1.86 µM (inactive); in the test with M19-MEL, 2.56 µM (inactive); in the test on SNB-78 it was 3.85 µM (inactive).

As to `CC1[C@@]2(CCC(C)(C)O2)O[C@@H]2C=C3C4CCC5Cc6nc7c(nc6C[C@@]5(C)C4C[C@H](O)[C@@]3(C)[C@]12O)CC1CCC2C3=C[C@H]4O[C@@]5(O[C@@](C)(CO)C[C@@H]5O)C(C)[C@@]4(O)[C@]3(C)[C@@H](O)CC2[C@]1(C)C7` (stereo not given in full), the GI50 is 0.753 µM (active) in the test with DLD-1; 0.0268 µM (active) in the test with DMS-114; 0.0123 µM (active) in the test on DMS-273; 0.0254 µM (active) in the test on LXFL 529; 0.991 µM (active) in the test with M19-MEL; 0.0198 µM (active) in the test on RXF 631. The GI50 was 0.043 µM (active) with SNB-78 and 0.322 µM (active) in the test on XF498.

With `Cc1ccc2c(ccc(/C=C/c3ccc(O)c4ncccc34)[n+]2C)c1`, the GI50 was 2.72 µM (inactive) in the test with DLD-1; 0.489 µM (active) with DMS-114; 2.07 µM (inactive) with DMS-273; 13.1 µM (inactive) with HOP-18; 1.16 µM (inactive) with LXFL 529; 6.08 µM (inactive) with M19-MEL. The figures for the GI50 in the test on SNB-78 and in the test with XF498 were 9.77 µM (inactive) and 3.19 µM (inactive), respectively.

Consider `CC(C)(C)[C@H]1CO[C@]2(C)[C@@H]3C[C@@H]3C(=O)N12`, for which the GI50 in the test on DLD-1, with DMS-114, in the test on DMS-273, with M19-MEL, in the test on RXF 631 and in the test with SNB-78 was > 100 µM (inactive) each time. Moreover, the GI50 in the test with XF498 was > 100 µM (inactive).

Source of the values: ChEMBL document CHEMBL1201862, “PubChem BioAssay data set” (2004).
